Assay results: patent US8367712B2, “Substituted amide beta secretase inhibitors” (Merck, Sharp & Dohme, Corp., priority 2004, dated 2013)

Biological target: T1, sproBACE1 (soluble form of human BACE1) (Homo sapiens, UniProt P56817)
T1 construct: sBACE1, corresponding to amino acids 1-454; made in house; host or cells: Sf9 insect cells (baculovirus), secreted into the medium
Assay: Peptide Hydrolysis Assay (HTRF, EuK-biotin labeled APPsw substrate)
Assay type: biochemical
Conditions: 7 nM sproBACE1, 25 nM EuK-biotin APPsw substrate, pH 5.0, 3 hr at 30° C.
From the text: A predicted soluble form of human BACE1 (sBACE1, corresponding to amino acids 1-454) was generated from the full length BACE1 cDNA (full length human BACE1 cDNA in pcDNA4/mycHisA construct; University of Toronto) by PCR using the advantage-GC cDNA PCR kit (Clontech, Palo Alto, Calif.). A HindIII/PmeI fragment from pcDNA4-sBACE1myc/His was blunt ended using Klenow and subcloned into the StuI site of pFASTBACI(A) (Invitrogen). A sBACE1mycHis recombinant bacmid was generated by transposition in DH10Bac cells(GIBCO/BRL). Subsequently, the sBACE1 mycHis bacmid construct was transfected into sf9 cells using CellFectin (Invitrogen, San Diego, Calif.) in order to generate recombinant baculovirus. […]
Proteins, were eluted from the Q-sepharose column with Buffer B (20 mM HEPES, pH 8.0, 500 mM NaCl). […] Peak protein fractions as determined by the Bradford Assay (Biorad, CA) were concentrated using a Centricon 30 concentrator (Millipore). sBACE1 purity was estimated to be ˜90% as assessed by SDS-PAGE and Commassie Blue staining. […]
IC50 determinations for inhibitors, (I), were determined by measuring the percent change of the relative fluorescence at 665 nm divided by the relative fluorescence at 620 nm, (665/620 ratio), in the presence of varying concentrations of I and a fixed concentration of enzyme and substrate. […]

T1 sequence (P56817 22-454): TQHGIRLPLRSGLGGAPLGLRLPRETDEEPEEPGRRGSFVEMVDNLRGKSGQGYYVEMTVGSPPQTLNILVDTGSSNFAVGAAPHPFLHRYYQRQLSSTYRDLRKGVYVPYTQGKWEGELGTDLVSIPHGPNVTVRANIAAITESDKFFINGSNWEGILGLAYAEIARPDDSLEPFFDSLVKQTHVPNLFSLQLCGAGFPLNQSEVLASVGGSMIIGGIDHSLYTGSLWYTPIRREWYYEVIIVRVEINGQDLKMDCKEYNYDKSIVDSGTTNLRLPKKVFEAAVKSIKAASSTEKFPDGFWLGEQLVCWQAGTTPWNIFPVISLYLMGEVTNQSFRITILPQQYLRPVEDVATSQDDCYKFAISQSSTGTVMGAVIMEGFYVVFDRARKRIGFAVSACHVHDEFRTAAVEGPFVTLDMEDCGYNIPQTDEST

IC50: 0.186 µM
SMILES: CC(=O)N[C@@H](Cc1cc(F)cc(OCc2ccncc2)c1)[C@H](O)[C@@H]1NCCN(Cc2ccccc2)C1=O
